From patent US9383348B2, “Compositions and methods for treating lung disorders” (priority 2008, dated 2016)

Key:
[1] = system: cytokine (IL-1 and IFN-γ) insufflated rats; assay: IL-1 and IFN-γ insufflation inflammatory acute lung injury (ARDS) in rats; assay type: in vivo
Experimental: Insufflating IL-1 and interferon-γ (IFN-γ) produced an inflammatory acute lung injury (ARDS) in rats 24 hours later (9). Cytokine insufflated rats had increased lung lavage LDH concentrations (FIG. 2A) and neutrophil numbers (FIG. 2B) compared to saline insufflated control rats. […] Lavage LDH levels paralleled other measures of lung injury including increased epithelial-derived cytokeratin 18 and endothelial-derived angiotensin converting enzyme (ACE) levels and morphologic evidence of inflammation and injury.
Remarkably, protection occurred with ERGO administered post-insult even after some neutrophils had invaded the lung.
[…] Each value is the mean +/−SEM of 3 to 6 determinations.

IL-1 insufflated rats = assay: IL-1 insufflation inflammatory acute lung injury (ARDS) in rats; assay type: in vivo; details: NAC 150 mg/kg intravenously either just before or 2½ hours after IL-1 insufflation; 5 hours; compared to untreated IL-1 insufflated rats
Experimental: Insufflating IL-1 produced an inflammatory acute lung injury (ARDS, FIG. 1A) in rats 5 hours later, which was associated with increases in lung lavage neutrophils (FIG. 1B), expired H2O2 levels (FIG. 1C) and lung GSSG levels (FIG. 1D). In contrast, rats administered NAC (150 mg/kg intravenously) either just before or 2½ hours after IL-1 insufflation had decreased lung leak index, lung lavage neutrophil numbers, expired H2O2 levels and lung GSSG levels compared to untreated rats insufflated with IL-1.

[2] = single intravenous bolus 15 mg/kg, 1 hour before cytokine insufflation, compared to untreated cytokine insufflated rats
[3] = single intravenous bolus 150 mg/kg, 18 hours after cytokine insufflation, compared to untreated cytokine insufflated rats
[4] = single intravenous injection 150 mg/kg, 1 hour before IL-1 and IFN-γ insufflation, 24 hours

C[N+](C)(C)[C@@H](Cc1c[nH]c(=S)[nH]1)C(=O)[O-] [ERGO, ergothioneine]
lung injury [1, 2]: less
lung neutrophils [1, 2]: less
lung neutrophil numbers [1, 3]: reduction in the severity
markers of alveolar capillary membrane injury [1, 3]: reduction in the severity
lung inflammation ([1]; single intravenous bolus 150 mg/kg, 18 hours after cytokine insufflation, data not shown): reduction in the severity
lung lavage LDH concentrations [1, 4]: decreased
lung lavage neutrophil concentrations [1, 4]: decreased
lung lavage total leukocyte concentrations [1, 4]: decreased

CC(=O)N[C@@H](CS)C(=O)O [NAC, N-acetylcysteine]
expired H2O2 levels (IL-1 insufflated rats): decreased
lung GSSG levels (IL-1 insufflated rats): decreased
lung lavage neutrophil numbers (IL-1 insufflated rats): decreased
lung leak index (IL-1 insufflated rats): decreased
